Legend:
[1] = system: Vγ9/Vδ2 lymphocytes; assay: Vγ9/Vδ2 lymphocyte expansion (flow cytometry immunofluorescence, anti-CD3 / anti-Vγ9); type: cell-based, human; conditions: PBMC after 5 days in culture, 100 μM; FIG. 2E-2L
Protocol: FIGS. 2A-2L. In order to verify selectivity with respect to Vγ9/Vδ2 lymphocytes of molecule activating potential, PBMCs, were cultured and analysed after 5 days of culture in the presence of various molecules by flow cytometry immunofluorescence. For this, the cells are retrieved, washed in PBS and then incubated in the presence of human anti-CD3 monoclonal antibodies conjugated with fluoroscein (FITC, FL1) and human anti-Vγ9 coupled with biotin and then detected with Streptavidine-phycoerythrin conjugate (ST-PE, FL2). The markings are produced by incubating for 30 minutes with 0.5 μg of each antibody per million cells. The analysis is performed after washing on a FACScalibur-SORT cell analyser-sorter cytofluorimeter (Becton Dickinson, Mountain View, CA). FIG. 2A gives the profile (size FSC and granularity SSC) of the cells studied. […] FIGS. 2D to 2L show a PBMC after 5 days in culture in the presence of the molecule tested. FIG. 2D: cells stimulated with 1μg/ml phytohaemagglutinin A (PHA). FIG. 2E: cells stimulated with 100μM isoprenylpyrophosphate (IPP). FIG. 2F: cells stimulated with 100μM 1-pyrophosphono-4-methylpenta-1,3-diene. FIG. 2G: cells stimulated with 100μM (E) 1-pyrophosphono-penta-1,3-diene. FIG. 2H: cells stimulated with 100μM (E) 1-pyrophosphono-buta-1,3-diene, FIG. 2I: cells stimulated with 100μM 5-pyrophosphono-2-methylpent-2-ene. FIG. 2J: cells stimulated with 100μM α,γ-di-[4-methylpent-4-enyl]-triphosphonate. FIG. 2K: cells stimulated with 100μM 5-pyrophosphono-2methylpentene. FIG. 2L: cells stimulated with 100μM 5-triphosphono-2-methylpentene.
In order to verify selectivity with respect to Vγ9/Vδ2 lymphocytes of the molecule activating potential, PBMCs, cultured under the conditions described above were analysed after 5 days of culture in the presence of various molecules by flow cytometry immunofluorescence. For this, the cells are retrieved, washed in PBS and then incubated in the presence of human anti-CD3 monoclonal antibodies conjugated with fluoroscein (FITC, FL1) and human anti-Vγ9 coupled with biotin and then detected with Streptavidine-phycoerythrin conjugate (ST-PE, FL2). The markings are produced by incubating for 30 minutes with 0.5 μg of each antibody per million cells. The analysis is performed after washing on a FACScalibur-SORT cell analyser-sorter cytofluorimeter (Becton Dickinson, Mountain View, Calif.). The results are processed using Cellquest software.
FIG. 2A gives the profile (size FSC and granularity SSC) of the cells studied. […] FIGS. 2D to 2L show a PBMC after 5 days in culture in the presence of the molecule tested.

[2] = system: Human peripheral blood lymphocytes (PBMC); assay: Human peripheral blood T lymphocyte proliferation activation (3H-thymidine incorporation, stimulation index); conditions: concentrations 0.001 μM to 500 μM, 4 days then 24 hours 3H-TdR, FIG. 1
Protocol: Human peripheral blood lymphocytes (PBMC) are isolated from donors' by centrifugation on Ficoll-Hypaque. They are then placed in culture in 96-well plates at a rate of 2.10^6 cells/ml in 200 μl of RPMI 1640 medium (Gibco) containing 10% foetal calf serum or human AB serum, 20 mM of Glutamine, 10 mM Hepes, 1 mM of sodium pyruvate, 10 μg/ml of penicillin-streptomycin. The molecules under test are then added at final concentrations ranging from 0.001 μM to 500 μM. Each condition is produced in triplicate. The molecules are diluted in isotonic phosphate buffer (PBS). The cells are then incubated at 37° C.-5% CO2 for 4 days. Cell proliferation is then determined by measuring the incorporation of thymidine ^3H (^3H-TdR). For this, 0.5 μCi of ^3H-TdR is added per culture. After 24 hours, the cells are retrieved on Cell Harvester (Packard Instruments) and the radioactivity incorporated in high molecular weight material is counted using a Rack-Beta counter (Packard).
The stimulation indices are evaluated as follows:
In all the experiments, isoprenyl pyrophosphonate (IPP) is selected as the reference.

[3] = Stability in human AB serum followed by phosphorus 31 NMR; conditions: three days of incubation; for degradation of the molecule after incubation in serum: human AB serum, 31P NMR
Protocol: To 0.5 ml of each solution, 500 μl of human AB serum was added and the mixture were left to incubate. After three days of incubation, the degradation of the molecule is measured by phosphorus 31 NMR.

[4] = system: human γ9δ2 T lymphocytes; conditions: in vitro; literature (Tanaka et al. 1994; Kunzmann et al. 2000); cited from earlier work
[5] = 0.1 mole/liter in D2O, 0.5 ml + 500 μl human AB serum

Molecule	Vγ9/Vδ2 T cell population in stimulated cultures [1]	inducing T lymphocyte proliferation (proliferation index) compared with IPP [2]	γ9δ2 T lymphocyte proliferation [4]	further results
5-pyrophosphono-2-methylpent-2-ene [Compound M4]	high increase	more effective than IPP		
5-pyrophosphono-2-methylpentene [Compound M6]	high increase	more effective than IPP		
5-triphosphono-2-methylpentene [Compound M7]	high increase	more effective than IPP		
C=C(C)CCO[P@@](=O)(O)OP(=O)(O)O [IPP, isopentenyl pyrophosphate, reference compound]				integral of the 31P NMR peak of the intact molecule [3, 5]: 1.2; degradation of the molecule after incubation in serum [3]: significant degradation
NCCCC(O)(P(=O)(O)O)P(=O)(O)O [alendronate]			stimulants of γ9δ2 T lymphocyte proliferation	
CCCCCN(C)CCC(O)(P(=O)(O)O)P(=O)(O)O [ibandronate]			stimulants of γ9δ2 T lymphocyte proliferation	
CCOP(=O)(O)O [monoethylphosphate]			induce in vitro, the proliferation of γ9δ2 T lymphocytes	
NCCC(O)(P(=O)(O)O)P(=O)(O)O [pamidronate]			stimulants of γ9δ2 T lymphocyte proliferation	
(E) 1-pyrophosphono-4-methylpenta-1,3-diene [Compound M1]	high increase	more effective than IPP		
(E) 1-pyrophosphono-buta-1,3-diene [Compound M3]	high increase	more effective than IPP		
(E) 1-pyrophosphono-penta-1,3-diene [Compound M2]	high increase	more effective than IPP		
isopentenyl pyrophosphonate [IPPN]				integral of the 31P NMR peak of the degradation product (isoprenyl phosphate / isoprenyl phosphonate) [3, 5]: 1.1; integral of the 31P NMR peak of the intact molecule [3, 5]: 96; degradation of the molecule after incubation in serum [3]: changed negligibly
α,γ-di-[4-methylpent-4-enyl]-triphosphonate [Compound M5]	high increase	more effective than IPP		
